ChEMBL document CHEMBL1201862, “PubChem BioAssay data set” (2004)
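Results reflect a 48-hour exposure of cells in 96-well plates to compound at five concentrations. GI50: concentration for 50% inhibition of growth.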 The source made the active and inactive calls. No stated cut-off is given here; in the data, active = GI50 up to about 1.1 µM and inactive = higher.

Tests used:
Experiment in all cases: NCI-60 cell line screen, 48 h
A549 = tested on: A549
ACHN = tested on: ACHN
COLO 205 = tested on: COLO 205
EKVX = tested on: EKVX
HOP-62 = tested on: HOP-62
HT-29 = tested on: HT-29
M14 = tested on: M14
NCI-H23 = tested on: NCI-H23
NCI-H522 = tested on: NCI-H522
OVCAR-5 = tested on: OVCAR-5
SF-295 = tested on: SF-295
SK-OV-3 = tested on: SK-OV-3
SNB-75 = tested on: SNB-75
TK-10 = tested on: TK-10
UACC-62 = tested on: UACC-62
UO-31 = tested on: UO-31
A498 = tested on: A498

Compound | GI50 (A549) | GI50 (ACHN) | GI50 (COLO 205) | GI50 (EKVX) | GI50 (HOP-62) | GI50 (HT-29) | GI50 (M14) | GI50 (NCI-H23) | GI50 (NCI-H522) | GI50 (OVCAR-5) | GI50 (SF-295) | GI50 (SK-OV-3) | GI50 (SNB-75) | GI50 (TK-10) | GI50 (UACC-62) | GI50 (UO-31) | GI50 (A498)
COC(=O)c1onc(-c2c(OC)cc(OC)cc2OC)c1C(=O)OC | > 100 µM (inactive) | > 100 µM (inactive) | > 100 µM (inactive) | > 100 µM (inactive) | > 100 µM (inactive) | > 100 µM (inactive) | > 100 µM (inactive) | > 100 µM (inactive) | > 100 µM (inactive) | > 100 µM (inactive) | > 100 µM (inactive) | > 100 µM (inactive) | > 100 µM (inactive) | > 100 µM (inactive) | > 100 µM (inactive) | > 100 µM (inactive) | 
COc1cc2oc(-c3ccc(O)cc3)cc(=O)c2c(O)c1C1OC(CO)C(O)C(O)C1O (stereo not given) | > 100 µM (inactive) | > 100 µM (inactive) | > 100 µM (inactive) | > 100 µM (inactive) | > 100 µM (inactive) | > 100 µM (inactive) | > 100 µM (inactive) | > 100 µM (inactive) | > 100 µM (inactive) | > 100 µM (inactive) | > 100 µM (inactive) | > 100 µM (inactive) | > 100 µM (inactive) | > 100 µM (inactive) | > 100 µM (inactive) | > 100 µM (inactive) | > 100 µM (inactive)
COc1ccc(C(=O)N2c3ccccc3N(C)n3cccc3C2CC(=O)O)cc1 (stereo not given) | > 100 µM (inactive) | > 100 µM (inactive) | > 100 µM (inactive) | > 100 µM (inactive) | > 100 µM (inactive) | > 100 µM (inactive) | > 100 µM (inactive) | > 100 µM (inactive) | > 100 µM (inactive) | > 100 µM (inactive) | > 100 µM (inactive) | > 100 µM (inactive) | > 100 µM (inactive) | > 100 µM (inactive) | > 100 µM (inactive) | > 100 µM (inactive) | > 100 µM (inactive)
Nc1c(-c2nc3ccccc3s2)[n+]([O-])c2ccccc2[n+]1[O-] | 36.4 µM (inactive) | 24.6 µM (inactive) | 37.1 µM (inactive) | 51.6 µM (inactive) | 22.5 µM (inactive) | 37 µM (inactive) | 29.6 µM (inactive) | 20 µM (inactive) | 22 µM (inactive) | > 100 µM (inactive) | 23.6 µM (inactive) | 37 µM (inactive) | 26.7 µM (inactive) | 42.1 µM (inactive) | 33.8 µM (inactive) | 21.8 µM (inactive) | 33.2 µM (inactive)
O=C(O)CCC(=O)N1C/C(=C\c2ccccc2)C(=O)/C(=C/c2ccccc2)C1 | 19.1 µM (inactive) | 2.07 µM (inactive) | 3.47 µM (inactive) | 5.02 µM (inactive) | 16.8 µM (inactive) | 2.23 µM (inactive) | 2.32 µM (inactive) | 3.64 µM (inactive) | 1.07 µM (active) | 15 µM (inactive) | 2.44 µM (inactive) | 12.7 µM (inactive) | 6.82 µM (inactive) | 9.1 µM (inactive) | 1.26 µM (inactive) | 18.6 µM (inactive) | 13.9 µM (inactive)
CCOC(=N)CC(=O)Nc1ccc(Cl)cc1 | > 100 µM (inactive) | > 100 µM (inactive) | > 100 µM (inactive) | > 100 µM (inactive) | > 100 µM (inactive) | > 100 µM (inactive) | > 100 µM (inactive) | > 100 µM (inactive) | > 100 µM (inactive) | > 100 µM (inactive) | > 100 µM (inactive) | > 100 µM (inactive) | > 100 µM (inactive) | > 100 µM (inactive) | > 100 µM (inactive) | > 100 µM (inactive) | > 100 µM (inactive)
CC(C)c1ccc(/C=C(\NC(=O)c2ccccc2)c2nc3ccccc3[nH]2)cc1 | 27.9 µM (inactive) | 33.7 µM (inactive) | 35.8 µM (inactive) | 34.7 µM (inactive) |  | 33.6 µM (inactive) | 32.3 µM (inactive) | 26.8 µM (inactive) | 26.7 µM (inactive) | 75.3 µM (inactive) |  | > 100 µM (inactive) | 36.3 µM (inactive) | 54.5 µM (inactive) | 37.4 µM (inactive) | 38.7 µM (inactive) | 40.6 µM (inactive)
CCc1ccc(/N=C\c2cc(OC)c(OC)c(OC)c2)cc1 | > 100 µM (inactive) | > 100 µM (inactive) |  | > 100 µM (inactive) | > 100 µM (inactive) | > 100 µM (inactive) | > 100 µM (inactive) | > 100 µM (inactive) | > 100 µM (inactive) | > 100 µM (inactive) | > 100 µM (inactive) | > 100 µM (inactive) | > 100 µM (inactive) | > 100 µM (inactive) | > 100 µM (inactive) | > 100 µM (inactive) | > 100 µM (inactive)
COc1ccc(-c2nnc(-c3c(C)n(C)n(-c4ccccc4)c3=O)o2)cc1 | > 100 µM (inactive) | > 100 µM (inactive) | > 100 µM (inactive) | > 100 µM (inactive) | > 100 µM (inactive) | > 100 µM (inactive) | > 100 µM (inactive) | > 100 µM (inactive) | > 100 µM (inactive) |  | > 100 µM (inactive) | > 100 µM (inactive) | > 100 µM (inactive) | > 100 µM (inactive) | > 100 µM (inactive) | > 100 µM (inactive) | > 100 µM (inactive)
CCOC(=O)CC1=N/C(=N/c2cc(Cl)ccc2Cl)SC1 | > 100 µM (inactive) | > 100 µM (inactive) | > 100 µM (inactive) | > 100 µM (inactive) | > 100 µM (inactive) | 54.1 µM (inactive) | > 100 µM (inactive) | > 100 µM (inactive) | 76.4 µM (inactive) | > 100 µM (inactive) | > 100 µM (inactive) | > 100 µM (inactive) | 78 µM (inactive) | > 100 µM (inactive) | > 100 µM (inactive) | > 100 µM (inactive) | > 100 µM (inactive)
CCOC(=O)Nn1c(C)cc(C(=O)OC)c1C | > 100 µM (inactive) | > 100 µM (inactive) | > 100 µM (inactive) | > 100 µM (inactive) | > 100 µM (inactive) | > 100 µM (inactive) | > 100 µM (inactive) | > 100 µM (inactive) | > 100 µM (inactive) | > 100 µM (inactive) | > 100 µM (inactive) | > 100 µM (inactive) | > 100 µM (inactive) | > 100 µM (inactive) | > 100 µM (inactive) | > 100 µM (inactive) | > 100 µM (inactive)
CC(=O)Nc1ccc(/C=c2\sc3nnc(-c4cccnc4)n3c2=O)cc1 | 42.1 µM (inactive) | 14 µM (inactive) | 15.4 µM (inactive) | 18.9 µM (inactive) | 21.8 µM (inactive) | 18.5 µM (inactive) | 18.7 µM (inactive) | 15.8 µM (inactive) | 16.1 µM (inactive) | 27.5 µM (inactive) | 36.4 µM (inactive) | 24 µM (inactive) | 22.2 µM (inactive) | 21.6 µM (inactive) | 13.4 µM (inactive) | 12 µM (inactive) | 75.2 µM (inactive)
CC1=C(C(=O)Nc2cccc(Cl)c2)C(c2ccc([N+](=O)[O-])cc2)C(C(=O)Nc2cccc(Cl)c2)=C(C)N1 | 28.9 µM (inactive) | 25.1 µM (inactive) | 34.5 µM (inactive) | 33.3 µM (inactive) | 29 µM (inactive) | 16.6 µM (inactive) | 16.6 µM (inactive) | 21.3 µM (inactive) | 26.3 µM (inactive) | 48 µM (inactive) | 23.6 µM (inactive) | 11.9 µM (inactive) | 10.7 µM (inactive) | 67.3 µM (inactive) | 14 µM (inactive) | 17.7 µM (inactive) | 33.1 µM (inactive)
C[N+]1(C)C/C(=C\c2ccncc2)C(=O)/C(=C/c2ccncc2)C1 | > 100 µM (inactive) | > 100 µM (inactive) | > 100 µM (inactive) | > 100 µM (inactive) | > 100 µM (inactive) | > 100 µM (inactive) | > 100 µM (inactive) |  | 19.6 µM (inactive) | > 100 µM (inactive) | > 100 µM (inactive) | > 100 µM (inactive) | > 100 µM (inactive) | > 100 µM (inactive) | > 100 µM (inactive) | > 100 µM (inactive) | > 100 µM (inactive)
O=C(Nc1ccc(Cl)cc1C(=O)O)c1ccc([N+](=O)[O-])cc1 | 33.7 µM (inactive) | 17.1 µM (inactive) | 18.7 µM (inactive) | 29.5 µM (inactive) | 10.2 µM (inactive) | 18.9 µM (inactive) | 24.3 µM (inactive) |  |  | 22.5 µM (inactive) | 23.7 µM (inactive) | 18.2 µM (inactive) | 45.4 µM (inactive) | 31.4 µM (inactive) | 14.5 µM (inactive) | 19 µM (inactive) | 9.77 µM (inactive)
COc1ccc(C2=Nc3ccccc3NC(=O)C2)cc1 | 77.6 µM (inactive) | 41.2 µM (inactive) | 38.3 µM (inactive) | > 100 µM (inactive) | 22.5 µM (inactive) | > 100 µM (inactive) | > 100 µM (inactive) | 26.9 µM (inactive) | 38.9 µM (inactive) | > 100 µM (inactive) | 23.1 µM (inactive) | 21.5 µM (inactive) | 23.8 µM (inactive) | 27.9 µM (inactive) | > 100 µM (inactive) | 34.4 µM (inactive) | 45.2 µM (inactive)
Cc1ccc(NC(=O)C(=O)C2C(=O)NC(=O)NC2=O)cc1C | > 100 µM (inactive) | > 100 µM (inactive) | > 100 µM (inactive) | > 100 µM (inactive) | > 100 µM (inactive) | > 100 µM (inactive) | > 100 µM (inactive) | > 100 µM (inactive) | > 100 µM (inactive) | > 100 µM (inactive) | > 100 µM (inactive) | > 100 µM (inactive) | > 100 µM (inactive) | > 100 µM (inactive) | > 100 µM (inactive) | > 100 µM (inactive) | 
